Values belong to the compound of their own block, whether it stands above or below them.
Legend:
Format in all cases: biochemical
[1] = tested on: cellulase; test: Viscosity of guar fluid with cellulase and deactivator at 22° C. (Examples 3-7); details: 200 ppm cellulase; for degradation of the guar: 22° C. (FIG. 4)
Protocol: (§1) The following example formulations were prepared by adding a desired amount of cellulase and then a deactivator to water. The polymer was hydrated in the mixed water with a Waring blender mixing at 1000-3000 rpm for 15 mins.
The viscosities of Formulations 1-6 were measured immediately after mixing. To measure the viscosity of the solutions, 12 mL samples were loaded into a rheometer cup in a Bohlin rheometer with a C25 configuration.
The viscosities of Formulations 1-4 were measured immediately after mixing. To measure the viscosity of the solutions, 12 mL samples were loaded into a rheometer cup in a Bohlin rheometer with a C25 configuration.
The viscosities of Formulations 1-5 were measured immediately after mixing. To measure the viscosity of the solutions, 12 mL samples were loaded into a rheometer cup in a Bohlin rheometer with a C25 configuration.

[2] = tested on: cellulase; test: Viscosity of xanthan fluid with cellulase and deactivator at 22° C. (Example 8); details: 0.6 g/L deactivator, 200 ppm cellulase, 3.6 g/L xanthan
Protocol: as §1
Formulation 3 was prepared by adding 200 ppm cellulase, 0.6 g/L of 1,5-dihydroxynaphthalene, and 3.6 g/L xanthan to tap water.
(§2) The viscosities of Formulations 1-3 were measured immediately after mixing. To measure the viscosity of the solutions, 12 mL samples were loaded into a rheometer cup in a Bohlin rheometer with a C25 configuration.

[3] = tested on: cellulase; test: Viscosity of guar solution with cellulase and deactivator over time at 50° C. and 80° C. (Example 1); details: 200 ppm cellulase, 3.6 g/L guar
Protocol: as §1
Formulation 3 was prepared by adding 200 ppm cellulase and 0.6 g/L of 1,5-dihydroxynaphthalene from Sigma Aldrich to tap water. Then 3.6 g/L guar was added to the fluid.
Formulation 4 was prepared by adding 200 ppm cellulase and 0.24 g/L of 1,5-dihydroxynaphthalene from Sigma Aldrich to tap water. Then 3.6 g/L guar was added to the fluid.
To measure the viscosity of the solutions, 12 mL samples were loaded into a rheometer cup in a Bohlin rheometer with a C25 configuration. The rheology tests were performed at a shear rate of 10 s^−1 and temperatures of 50° C. and 80° C., the results of which are shown in FIG. 1 and FIG. 2, respectively.

[4] = tested on: cellulase; test: Viscosity of carboxymethyl cellulose fluid with cellulase and deactivator at 22° C. (Example 9); details: 0.6 g/L deactivator, 200 ppm cellulase, 3.6 g/L carboxymethyl cellulose
Protocol: as §1
Formulation 3 was prepared by adding 200 ppm cellulase, 0.6 g/L of 1,5-dihydroxynaphthalene, and 3.6 g/L carboxymethyl cellulose to tap water.
as §2

[5] = tested on: bacterial and/or fungal cells; test: Viscosity of guar in water containing 11,000,000 CFU bacterial and/or fungal cells (Example 2); details: 0.4 g/L deactivator, 3.6 g/L guar
Protocol: Formulation 2 was prepared by adding 3.6 g/L guar to water containing 11,000,000 CFU bacterial and/or fungal cells.
Formulation 3 was prepared by adding 0.4 g/L of tannic acid to Formulation 2.
as §2

Structure (SMILES): COc1cc(OC)cc(OC)c1 [1,3,5-trimethoxybenzene]
- degradation of the biomaterial ([1]; 0.6 g/L 1,3,5-trimethoxybenzene, 3.6 g/L guar, 22° C. (FIG. 8)): impeded
- viscosity compared with Formulation 1 (no cellulase) ([1]; 0.6 g/L 1,3,5-trimethoxybenzene, 3.6 g/L guar, shear rate 1, 10, 100 s^-1, 22° C. (FIG. 8)): similar

Structure (SMILES): Oc1ccc2c(c1)OCO2 [sesamol]
- degradation of the biomaterial ([1]; 0.36 g/L deactivator, 3.6 g/L guar, 22° C. (FIG. 7)): impeded
- viscosity compared with Formulation 1 (no cellulase) ([1]; 0.36 g/L deactivator, 3.6 g/L guar, shear rate 1, 10, 100 s^-1, 22° C. (FIG. 7)): similar

Structure (SMILES): Oc1cccc2cccc(O)c12 [1,8-dihydroxynaphthalene]
- degradation of the biomaterial ([1]; 0.12 g/L deactivator, 3.6 g/L guar, 22° C. (FIG. 6)): impeded
- viscosity compared with Formulation 1 (no cellulase) ([1]; 0.12 g/L deactivator, 3.6 g/L guar, shear rate 1, 10, 100 s^-1, 22° C. (FIG. 6)): similar

Structure (SMILES): O=C(OC[C@H]1O[C@@H](OC(=O)c2cc(O)c(O)c(OC(=O)c3cc(O)c(O)c(O)c3)c2)[C@H](OC(=O)c2cc(O)c(O)c(OC(=O)c3cc(O)c(O)c(O)c3)c2)[C@@H](OC(=O)c2cc(O)c(O)c(OC(=O)c3cc(O)c(O)c(O)c3)c2)[C@@H]1OC(=O)c1cc(O)c(O)c(OC(=O)c2cc(O)c(O)c(O)c2)c1)c1cc(O)c(O)c(OC(=O)c2cc(O)c(O)c(O)c2)c1 [tannic acid]
- degradation of the guar biomaterial by the enzyme ([5]; water with 11,000,000 CFU bacterial and/or fungal cells, 22° C. (FIG. 3)): inhibited
- viscosity compared with Formulation 1 (guar in tap water) ([5]; water with 11,000,000 CFU cells, shear rate 1, 10, 100 s^-1, 22° C. (FIG. 3)): similar
- degradation of the biomaterial by the cellulase enzymes ([1]; 0.4 g/L deactivator, 3.6 g/L guar, 22° C. (FIG. 5)): impeded
- viscosity compared with Formulation 1 (no cellulase) ([1]; 0.4 g/L deactivator, 3.6 g/L guar, shear rate 1, 10, 100 s^-1, 22° C. (FIG. 5)): similar

Structure (SMILES): Nc1cccc2c(O)cccc12 [5-amino-1-naphthol]
- degradation of the biomaterial ([1]; 0.96 g/L deactivator, 3.6 g/L guar, 22° C. (FIG. 7)): impeded
- viscosity compared with Formulation 1 (no cellulase) ([1]; 0.96 g/L deactivator, 3.6 g/L guar, shear rate 1, 10, 100 s^-1, 22° C. (FIG. 7)): similar

Second part, the compound after the results:

- degradation of the guar ([1]; 8 mL/L salicylic acid, 3.6 g/L guar): impeded
- viscosity compared with Formulation 1 (no cellulase) ([1]; 8 mL/L salicylic acid, 3.6 g/L guar, shear rate 1, 10, 100 s^-1, 22° C. (FIG. 4)): similar
Structure (SMILES): O=C(O)c1ccccc1O [salicylic acid]

- degradation of the biomaterial ([1]; 0.6 g/L 1,2,3-trimethoxybenzene, 3.6 g/L guar, 22° C. (FIG. 8)): impeded
- viscosity compared with Formulation 1 (no cellulase) ([1]; 0.6 g/L 1,2,3-trimethoxybenzene, 3.6 g/L guar, shear rate 1, 10, 100 s^-1, 22° C. (FIG. 8)): similar
Structure (SMILES): COc1cccc(OC)c1OC [1,2,3-trimethoxybenzene]

- degradation of the guar ([1]; 0.96 g/L deactivator, 3.6 g/L guar): impeded
- viscosity compared with Formulation 1 (no cellulase) ([1]; 0.96 g/L deactivator, 3.6 g/L guar, shear rate 1, 10, 100 s^-1, 22° C. (FIG. 4)): similar
Structure (SMILES): COc1cc(C(=O)O)ccc1O [vanillic acid]

- degradation of the guar ([1]; 8 mL/L deactivator, 6 g/L guar): impeded
- viscosity compared with Formulation 1 (no cellulase) ([1]; 8 mL/L deactivator, 6 g/L guar, shear rate 1, 10, 100 s^-1, 22° C. (FIG. 4)): similar
Structure (SMILES): COc1ccccc1O [guaiacol]

- degradation of the guar ([1]; 8 mL/L gallic acid, 3.6 g/L guar): impeded
- viscosity compared with Formulation 1 (no cellulase) ([1]; 8 mL/L gallic acid, 3.6 g/L guar, shear rate 1, 10, 100 s^-1, 22° C. (FIG. 4)): similar
Structure (SMILES): O=C(O)c1cc(O)c(O)c(O)c1 [gallic acid]

- degradation of the biomaterial ([1]; 0.36 g/L deactivator, 3.6 g/L guar, 22° C. (FIG. 6)): impeded
- viscosity compared with Formulation 1 (no cellulase) ([1]; 0.36 g/L deactivator, 3.6 g/L guar, shear rate 1, 10, 100 s^-1, 22° C. (FIG. 6)): similar
Structure (SMILES): Oc1cc2ccccc2cc1O [2,3-dihydroxynaphthalene]

- degradation of the biomaterial ([2]; 22° C. (FIG. 9)): impeded
- viscosity compared with Formulation 1 (no cellulase) ([2]; shear rate 1, 10, 100 s^-1, 22° C. (FIG. 9)): similar
- degradation rate of the cellulase enzymes ([3]; 0.6 g/L deactivator, tap water, shear rate 10 s^-1, 50° C. and 80° C. (FIG. 1, 2)): reduced
- dependence of viscosity reduction on deactivator concentration ([3]; 0.6 g/L vs 0.24 g/L deactivator, 50° C. (FIG. 1)): the slower the viscosity was reduced
- viscosity compared with the formulation without deactivator ([3]; 50° C., shear rate 10 s^-1 (FIG. 1)): higher
- viscosity compared with the formulation without deactivator ([3]; 80° C., shear rate 10 s^-1 (FIG. 2)): higher
- degradation of the biomaterial ([1]; 0.6 g/L deactivator, 3.6 g/L guar, 22° C. (FIG. 6)): impeded
- viscosity compared with Formulation 1 (no cellulase) ([1]; 0.6 g/L deactivator, 3.6 g/L guar, shear rate 1, 10, 100 s^-1, 22° C. (FIG. 6)): similar
- degradation of the biomaterial ([4]; 22° C. (FIG. 10)): impeded
- viscosity compared with Formulation 1 (no cellulase) ([4]; shear rate 1, 10, 100 s^-1, 22° C. (FIG. 10)): similar
Structure (SMILES): Oc1cccc2c(O)cccc12 [1,5-dihydroxynaphthalene]
